The source of these data is patent US20210330611A1, “THERAPY FOR NEUROLOGICAL DISEASES/DISORDERS” (priority 2020, published 2021).

Structures can show the parent of a compound that is named as a salt. Where two headings read alike, the source gives them in different places. Where a SMILES comes first, the peptide text is derived from it.

The subject of data set [1] is fibrin- and LPS-induced microglia activation. As to the kind of experiment: cells. It counts as cell-based, rat. The following applies: quadrant by fibrin and LPS inhibition, HTS at 10 μM.
The test system of data set [2] is LPS-induced microglia activation. The experiment in a line: Image-based assay of LPS-induced microglia activation (HTS and dose response). Format: cell-based, rat. The following applies: primary microglia HTS, LPS stimulation, compounds at 10 μM; for inhibition at 10 µM: Rattus norvegicus, Microglia, read-out: LPS % inhibition.
In data set [3] the test system is primary rat microglia.
The subject of data set [4] is primary rat microglia. The experiment in a line: Cell toxicity (dead cells, size <150 μm2) in coated fibrin (cFib) assay.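 Also: share of dead cells sized under 150 µm2 at 10 µM in fibrin-stimulated microglia HTS.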 The following applies: primary microglia HTS, fibrin assay, dead cells (size <150 μm2).
The subject of data set [5] is fibrin-induced microglia activation. The experiment in a line: Image-based assay of fibrin-induced microglia activation (HTS and dose response). It counts as cell-based, rat. The following applies: primary microglia HTS, fibrin stimulation, compounds at 10 μM; for inhibition at 10 µM: Rattus norvegicus, Microglia, read-out: Fibrin % inhibition.

For `Nc1cc(-c2ccncc2)c[nH]c1=O` [Amrinone, Inamrinone], the “Quadrant (FIG. 5b)” value in data set [1] was “Q4”. In addition, in data set [2], the LPS % inhibition was 18%. The “LPS % cell toxicity” value in data set [3] is given as 0%. In addition, the “Fibrin % cell toxicity” value in data set [4] was 1%. Besides, the Fibrin % inhibition in data set [5] was 1%.
Consider `COc1ccc(C2C(=O)c3ccccc3C2=O)cc1` [Anisindione], for which the “Quadrant (FIG. 5b)” value in data set [1] was “Q4”. Besides, the results for the inhibition at 10 µM in data set [2] and in data set [5] were 13% and -15%, respectively. Moreover, the “LPS % cell toxicity” value in data set [3] (rat) is 0%. Also, the “Fibrin % cell toxicity” value in data set [4] is recorded as 0%.
Turning to `Br.CN1[C@H]2C[C@H](OC(=O)[C@H](CO)c3ccccc3)C[C@@H]1[C@@H](O)C2` [Anisodamine Hydrobromide], in data set [1], the “Quadrant (FIG. 5b)” value is listed as “Q4”. Besides, in data set [2], the LPS % inhibition is on record as 4%. Also, the “LPS % cell toxicity” value in data set [3] worked out at 0%. In addition, in data set [4], the “Fibrin % cell toxicity” value was 1%. Also, in data set [5], the Fibrin % inhibition is listed as −41%.
On to `c1ccc(CN(CC2=NCCN2)c2ccccc2)cc1` [Antazoline], for which the “Quadrant (FIG. 5b)” value in data set [1] was “Q4”. In addition, the figures for the inhibition at 10 µM in data set [2] and in data set [5] were 17% and -2%, respectively. Also, the “LPS % cell toxicity” value in data set [3] (rat) was 1%. In data set [4], the “Fibrin % cell toxicity” value was found to be 1%.
On to `O=C1c2c(O)cccc2Cc2cccc(O)c21` [Anthralin], for which, in data set [1], the “Quadrant (FIG. 5b)” value is “Q4”. For the same compound, the inhibition (commonly the change of the read-out against control, counted positive when it falls) at 10 µM was 13% in data set [2] and -10% in data set [5]. In addition, the “LPS % cell toxicity” value in data set [3] (rat) is 1%. In addition, the “Fibrin % cell toxicity” value in data set [4] worked out at 1%.
As to `Cc1cc(=O)n(-c2ccccc2)n1C` [Antipyrine], the “Quadrant (FIG. 5b)” value in data set [1] is recorded as “Q4”. Also, the inhibition at 10 µM was 13% in data set [2] and -8% in data set [5]. For the same compound, the “LPS % cell toxicity” value in data set [3] (rat) was determined as 1%. The “Fibrin % cell toxicity” value in data set [4] was 0%.
For the compound `C[C@@H](O[C@H]1OCCN(Cc2n[nH]c(=O)[nH]2)[C@H]1c1ccc(F)cc1)c1cc(C(F)(F)F)cc(C(F)(F)F)c1` [Aprepitant], the “Quadrant (FIG. 5b)” value in data set [1] is reported as “Q4”. For the same compound, the inhibition at 10 µM in data set [2] is 1%; in data set [5], 20%. Also, the “LPS % cell toxicity” value in data set [3] (rat) is 0%. The “Fibrin % cell toxicity” value in data set [4] turned out to be 1%.
With `NC(=O)C[S@@+]([O-])C(c1ccccc1)c1ccccc1` [Armodafinil], the “Quadrant (FIG. 5b)” value in data set [1] is “Q4”. Further, the inhibition at 10 µM in data set [2] is 19%; in data set [5], -10%. The “LPS % cell toxicity” value in data set [3] (rat) is listed as 1%. Further, in data set [4], the “Fibrin % cell toxicity” value was determined as 0%.
For the compound `Nc1ccc([As](=O)(O)O)cc1` [Arsanilic Acid], the “Quadrant (FIG. 5b)” value in data set [1] was “Q4”. Moreover, the LPS % inhibition in data set [2] was found to be 12%. Also, in data set [3] (rat), the “LPS % cell toxicity” value came to 0%. The “Fibrin % cell toxicity” value in data set [4] came out at 0%. In data set [5], the Fibrin % inhibition is −42%.
For the compound `C[C@@H]1CC[C@H]2[C@@H](C)C(=O)O[C@@H]3O[C@@]4(C)CC[C@@H]1[C@]32OO4` [Artemisinin], in data set [1], the “Quadrant (FIG. 5b)” value is reported as “Q4”. For the same compound, the inhibition at 10 µM was 12% in data set [2] and -25% in data set [5]. Also, the “LPS % cell toxicity” value in data set [3] (rat) is listed as 0%. In data set [4], the “Fibrin % cell toxicity” value amounted to 0%.
For the compound `C[C@H]1[C@@H](O)O[C@@H]2O[C@@]3(C)CC[C@H]4[C@H](C)CC[C@@H]1[C@@]24OO3` [Artenimol], the “Quadrant (FIG. 5b)” value in data set [1] was “Q4”. Besides, the inhibition at 10 µM in data set [2] is 11%; in data set [5], -56%. Besides, the “LPS % cell toxicity” value in data set [3] (rat) turned out to be 0%. The “Fibrin % cell toxicity” value in data set [4] is given as 0%.
`COC(=O)[C@H](Cc1ccccc1)NC(=O)[C@@H](N)CC(=O)O` [Aspartame] (H-Asp-Phe-OMe): in data set [1], the “Quadrant (FIG. 5b)” value was “Q4”. For the same compound, the values for the inhibition at 10 µM in data set [2] and in data set [5] were 7% and -15%, respectively. For the same compound, in data set [3] (rat), the “LPS % cell toxicity” value is recorded as 0%. The “Fibrin % cell toxicity” value in data set [4] is on record as 1%.
`COC(=O)N[C@H](C(=O)N[C@@H](Cc1ccccc1)[C@@H](O)CN(Cc1ccc(-c2ccccn2)cc1)NC(=O)[C@@H](NC(=O)OC)C(C)(C)C)C(C)(C)C` [Atazanavir]: the “Quadrant (FIG. 5b)” value in data set [1] is reported as “Q4”. For the same compound, the inhibition at 10 µM in data set [2] is 13%; in data set [5], -17%. In addition, the “LPS % cell toxicity” value in data set [3] (rat) was 1%. The “Fibrin % cell toxicity” value in data set [4] is 0%.
Turning to `O=C1C(O)=C([C@H]2CC[C@H](c3ccc(Cl)cc3)CC2)C(=O)c2ccccc21` [Atovaquone], in data set [1], the “Quadrant (FIG. 5b)” value was “Q4”. The inhibition at 10 µM in data set [2] was 13%; in data set [5], -15%. Also, in data set [3] (rat), the “LPS % cell toxicity” value stood at 0%. The “Fibrin % cell toxicity” value in data set [4] is given as 0%.
For the compound `COc1ccc(C(=O)CC(=O)c2ccc(C(C)(C)C)cc2)cc1` [Avobenzone], the “Quadrant (FIG. 5b)” value in data set [1] is “Q4”. For the same compound, the inhibition at 10 µM in data set [2] came out at 20%; in data set [5], 22%. In data set [3] (rat), the “LPS % cell toxicity” value turned out to be 0%. Moreover, the “Fibrin % cell toxicity” value in data set [4] was determined as 1%.
As for `[N-]=[N+]=CC(=O)OC[C@H](N)C(=O)O` [Azaserine], the “Quadrant (FIG. 5b)” value in data set [1] is given as “Q4”. Also, the figures for the inhibition at 10 µM in data set [2] and in data set [5] were 2% and 8%, respectively. Also, the “LPS % cell toxicity” value in data set [3] (rat) was 0%. In data set [4], the “Fibrin % cell toxicity” value came to 1%.
Turning to `CN1CCC(=C2c3ccccc3CCc3cccnc32)CC1` [Azatadine], in data set [1], the “Quadrant (FIG. 5b)” value was “Q4”. The values for the inhibition at 10 µM in data set [2] and in data set [5] were 7% and -9%, respectively. For the same compound, the “LPS % cell toxicity” value in data set [3] (rat) was found to be 0%. The “Fibrin % cell toxicity” value in data set [4] was 1%.
Taken in the same sequence, the figures for `O=C(O)CCCCCCCC(=O)O` [Azelaic Acid] were “Q4”, 19%, 6%, 0% and 0%.
As to `CN1CCCC(n2nc(Cc3ccc(Cl)cc3)c3ccccc3c2=O)CC1` (centres unmarked) [Azelastine, Azelastine Hydrochloride], in data set [1], the “Quadrant (FIG. 5b)” value is given as “Q4”. Further, the LPS % inhibition in data set [2] is recorded as 11%. In addition, the “LPS % cell toxicity” value in data set [3] stood at 0%. Also, the “Fibrin % cell toxicity” value in data set [4] is recorded as 0%. Besides, in data set [5], the Fibrin % inhibition is recorded as 5%.
For `CCOc1nc2cccc(C(=O)OCc3oc(=O)oc3C)c2n1Cc1ccc(-c2ccccc2-c2noc(=O)[nH]2)cc1` [Azilsartan medoxomil], the “Quadrant (FIG. 5b)” value in data set [1] is “Q4”. Also, the inhibition at 10 µM in data set [2] turned out to be 31%; in data set [5] it was 5%. Besides, in data set [3] (rat), the “LPS % cell toxicity” value is recorded as 1%. The “Fibrin % cell toxicity” value in data set [4] stood at 0%.
For `CC1(C)S[C@@H]2[C@H](NC(=O)[C@H](NC(=O)N3CCNC3=O)c3ccccc3)C(=O)N2[C@H]1C(=O)O` [Azlocillin Sodium], the “Quadrant (FIG. 5b)” value in data set [1] was “Q4”. The same compound displayed an LPS % inhibition in data set [2] (10 µM) of 17%. For the same compound, the “LPS % cell toxicity” value in data set [3] (rat) is recorded as 0%. Also, the “Fibrin % cell toxicity” value in data set [4] turned out to be 0%. Also, the Fibrin % inhibition in data set [5] (10 µM) was −5%.
For `CC1(C)S[C@@H]2[C@H](NC(=O)[C@H](NC(=O)N3CCNC3=O)c3ccccc3)C(=O)N2[C@H]1C(=O)O` [Azlocillin], in data set [1], the “Quadrant (FIG. 5b)” value is “Q4”. The same compound gave an LPS % inhibition in data set [2] (10 µM) of 6%. Further, in data set [3] (rat), the “LPS % cell toxicity” value is on record as 1%. Further, the “Fibrin % cell toxicity” value in data set [4] is on record as 1%. Further, the Fibrin % inhibition in data set [5] (10 µM) was −14%.
